Source: patent publication US20250268799A1, “MEDIUM FOR WATER-FREE ROOT CANAL DISINFECTANT WITH HIGH FLUIDITY, DISINFECTANT USING SAME, AND USE THEREOF” (WENZHOU QINGCHENG HEALTHCARE TECH LTD., priority 2022, published 2025)

Legend:
[1] = Water dispersion test; assay type: physicochemical; details: 0.5% surfactant added to Paste A
Method: Add appropriate food-grade carmine dye to the above pastes, homogenize thoroughly with a homogenizer so that each paste can be squeezed out from a 25 G root canal irrigation needle, and divide into syringes for use.
S1: Prepare 23 150 mL beakers with similar diameters, fill them with water, and inject one drop (approximately 0.01 g) of each of the 23 pastes (A, B, C, D, E, F, G, H, A1-A15) into each beaker through a 25 G root canal irrigation needle (except G and H).
S2: Observe the color change immediately after preparation.

[2] = system: Enterococcus faecalis; details: in vitro direct contact; cited from earlier work
[3] = system: bacteria; details: intracanal medicament for one week; cited from earlier work

Question: Which “effect of surfactant on the dispersion of the paste in water” value (“effect of surfactant” for short) [1] does the source give for `CC(=O)O.CC(=O)O.NC(=N\CCCCCC/N=C(N)/N=C(\N)Nc1ccc(Cl)cc1)/N=C(\N)Nc1ccc(Cl)cc1` [CHX, Chlorhexidine Acetate] here?
Answer: best performance

Question: For `[Ca+2].[OH-].[OH-]` [calcium hydroxide], which “contact time for complete eradication of Enterococcus faecalis” value [2] is on record?
Answer: 24 h

Question: And the reduction of bacteria [3]?
Answer: 92.5%

Question: For “Fatty Alcohol Polyoxyethylene Ether [AEO-9]”, which “effect of surfactant” value [1] is on record?
Answer: negative effects

Question: With “Polyoxyethylene (60) Hydrogenated Castor Oil [RH60]” as the compound, how does the “effect of surfactant” value [1] read?
Answer: best performance
